Measured values as given in patent US20250319053A1, “INHIBITORS OF THE PEPTIDYL-PROLYL CIS/TRANS ISOMERASE (PIN1), COMBINATIONS AND USES THEREOF” (DANA-FARBER CANCER INSTITUTE, INC., priority 2021, published 2025).

Tests used:
[1] = system: WT B6 mice (non-tumor-bearing mice); experiment: Blood test (CBC, liver, renal) of Pin1i-2 treated non-tumor-bearing B6 mice; format: in vivo, mouse; details: for CBC BA: Normal Range 0-2; for CBC EO: Normal Range 0-3.9; for CBC MO: Normal Range 0-7.5; for CBC WBC: Normal Range 1.8-10.7; for Liver Alb: Normal Range 1.95-4.74; for CBC RBC: Normal Range 6.36-9.42; for CBC NE: Normal Range 6.6-38.9; for CBC Hb: Normal Range 11-15.1; for Renal BUN: Normal Range 17-57.5; for Liver ALT: Normal Range 30-206; for CBC LY: Normal Range 55.8-91.6; for CBC PLT: Normal Range 592-2972; for Renal Cre: Normal Range <0.15
Procedure: Table 1 is a table of blood test results together with body weight of Pin1i−2 treated non-tumor-bearing B6 mice. See also FIG. 1A-FIG. 1G, FIG. 8A-FIG. 8O, and FIG. 9A-9L. WT B6 mice (non-tumor-bearing mice) were treated with vehicle or Pin1i−2 (20, 40, or 60 mg/kg, i.p., daily) for 5 weeks, followed by examining mice body weight or the RBC, Hb, Plate, and kidney and liver function using blood tests at 3 weeks and 5 weeks (n=5).

Pin1 = Pin1 (Homo sapiens, UniProt Q13526); experiment: Immunoblotting for Pin1 and substrate oncoproteins in PDAC cells; format: cell-based; set-up: endogenous in cells; host or cells: primary human patient-derived PDAC cells (PDAC1, PDAC2); details: 72 hrs
Pin1, sequence (Q13526 whole entry): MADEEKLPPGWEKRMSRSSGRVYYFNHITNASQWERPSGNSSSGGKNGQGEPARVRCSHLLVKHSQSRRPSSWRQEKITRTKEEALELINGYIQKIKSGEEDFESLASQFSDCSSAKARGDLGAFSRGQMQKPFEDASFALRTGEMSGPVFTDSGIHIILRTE
Procedure: Cultured cells were lysed in RIPA buffer (50 mM Tris-HCl, pH 7.2, 150 mM NaCl, 1% NP40, 0.1% sodium dodecyl sulfate (SDS), 0.25% Na-deoxycholate) with freshly added phosphatase inhibitors containing 5 mM NaF and 0.2 mM sodium orthovanadate (NA3VO4), and proteinase inhibitors containing 2 μg/mL Aprotinin, 2 μg/mL Leupeptin, 2 μg/mL Pepstatin A, 1 mM DTT (dithiothreitol), 0.5 mM 4-(2-aminoethyl)-benzenesulfonyl fluoride (AEBSF), and 20 mM Chymotrypsin, and then mixed with the SDS sample buffer and loaded onto a gel after boiling for 10 minutes at 95° C. The proteins were resolved by polyacrylamide gel electrophoresis and transferred to PVDF membrane. The transferred membrane was washed three times with Tris-buffered saline containing 0.1% Tween 20 (TBST). After blocking with TBST containing 5% milk or 3% bovine serum albumin (BSA) for 1 h room temperature, the membrane was incubated with the appropriate primary antibody (diluted 1:500-1:10000) in 5% milk or 3% BSA-containing TBST at 4° C. overnight. After incubation with the primary antibody, the membrane was washed three times with TBST for a total of 30 min followed by incubation with horseradish peroxidase conjugated goat anti-rabbit or anti-mouse IgG (diluted 1:5000) for 1 h at room temperature. After three extensive washes with TBST for a total of 30 min, the immunoblots were visualized by enhanced chemi-luminescence. Immunoblotting results were quantified using ImageJ (NIH).

human PDAC organoids = experiment: Organoid apoptosis assay, co-culture with activated human PBMCs; format: cell-based; details: Pin1i−2 at 5 μM 3 days, αPD1 at 200 μg/mL for 40 hrs
Procedure: For assaying the effects of Pin1 inhibition on anti-PD1 or PDL1 sensitivity, organoids and PBMCs were co-culture as described previously (Dijkstra et al., 2018; Jiao et al., 2017). […] Human PBMCs (Precision for Medicine) were stimulated by PDAC organoid culture media, and 8.0×10^4 PBMCs were incubated with 2 pl CD3/28 beads (11161D, GIBCO) and 30 U recombinant IL-2 (200-02, Peprotech) per well in 96-well plates for 24 hours before starting co-culture. […] At the start of co-culture, a green-fluorescent caspase 3/7 probe reagent (R37111, Invitrogen) and Hoechst (135102, Invitrogen) were added to visualize cells undergoing apoptosis. Apoptotic organoids were monitored by live-cell time lapse imaging was started 2 hours after the start of co-culture using BZ-X800 fluorescence microscope (KEYENCE) and quantified using BZ-X800 analyzer (ver. 1.1.1.8, KEYENCE). […] Synergy scores were calculated by Synergyfinder ver 2 (synergyfinder.fimm.fi/) (Ianevski et al., Nucleic Acids Res. 48 IW1), […]-[…] (2020)).

CC(C)(C)CN(C(=O)CCl)C1CCS(=O)(=O)C1 (centres unmarked) [Pin1i−2, sulfopin]
CBC BA ([1]; 20 mg/kg i.p. daily, 3 weeks): 0.064%
CBC EO ([1]; 20 mg/kg i.p. daily, 3 weeks): 0.204%
CBC MO ([1]; 20 mg/kg i.p. daily, 3 weeks): 8.248%
CBC WBC ([1]; 20 mg/kg i.p. daily, 3 weeks): 7.508 K/uL
Liver Alb ([1]; 20 mg/kg i.p. daily, 3 weeks): 3.375 g/dL
CBC RBC ([1]; 20 mg/kg i.p. daily, 3 weeks): 9.424 M/uL
CBC NE ([1]; 20 mg/kg i.p. daily, 3 weeks): 6.5%
CBC Hb ([1]; 20 mg/kg i.p. daily, 3 weeks): 13.8 g/dL
Renal BUN ([1]; 20 mg/kg i.p. daily, 3 weeks): 31 mg/dL
Liver ALT ([1]; 20 mg/kg i.p. daily, 3 weeks): 41.5 U/L
CBC LY ([1]; 20 mg/kg i.p. daily, 3 weeks): 84.982%
CBC PLT ([1]; 20 mg/kg i.p. daily, 3 weeks): 530.4 K/uL
Renal Cre ([1]; 20 mg/kg i.p. daily, 3 weeks): <0.15 mg/dL
CBC BA ([1]; 20 mg/kg i.p. daily, 5 weeks): 0.044%
CBC EO ([1]; 20 mg/kg i.p. daily, 5 weeks): 0.15%
CBC MO ([1]; 20 mg/kg i.p. daily, 5 weeks): 9.16%
CBC WBC ([1]; 20 mg/kg i.p. daily, 5 weeks): 7.452 K/uL
Liver Alb ([1]; 20 mg/kg i.p. daily, 5 weeks): 2.94 g/dL
CBC RBC ([1]; 20 mg/kg i.p. daily, 5 weeks): 9.228 M/uL
CBC NE ([1]; 20 mg/kg i.p. daily, 5 weeks): 6.134%
CBC Hb ([1]; 20 mg/kg i.p. daily, 5 weeks): 13.38 g/dL
Renal BUN ([1]; 20 mg/kg i.p. daily, 5 weeks): 30.4 mg/dL
Liver ALT ([1]; 20 mg/kg i.p. daily, 5 weeks): 41.4 U/L
CBC LY ([1]; 20 mg/kg i.p. daily, 5 weeks): 84.51%
CBC PLT ([1]; 20 mg/kg i.p. daily, 5 weeks): 612.6 K/uL
Renal Cre ([1]; 20 mg/kg i.p. daily, 5 weeks): <0.15 mg/dL
CBC BA ([1]; 40 mg/kg i.p. daily, 3 weeks): 0.056%
CBC EO ([1]; 40 mg/kg i.p. daily, 3 weeks): 0.156%
CBC MO ([1]; 40 mg/kg i.p. daily, 3 weeks): 8.298%
CBC WBC ([1]; 40 mg/kg i.p. daily, 3 weeks): 4.76 K/uL
Liver Alb ([1]; 40 mg/kg i.p. daily, 3 weeks): 3.6 g/dL
CBC RBC ([1]; 40 mg/kg i.p. daily, 3 weeks): 8.698 M/uL
CBC NE ([1]; 40 mg/kg i.p. daily, 3 weeks): 6.97%
CBC Hb ([1]; 40 mg/kg i.p. daily, 3 weeks): 12.44 g/dL
Renal BUN ([1]; 40 mg/kg i.p. daily, 3 weeks): 28.8 mg/dL
Liver ALT ([1]; 40 mg/kg i.p. daily, 3 weeks): 41.67 U/L
CBC LY ([1]; 40 mg/kg i.p. daily, 3 weeks): 84.522%
CBC PLT ([1]; 40 mg/kg i.p. daily, 3 weeks): 449.2 K/uL
Renal Cre ([1]; 40 mg/kg i.p. daily, 3 weeks): <0.15 mg/dL
CBC BA ([1]; 40 mg/kg i.p. daily, 5 weeks): 0.092%
CBC EO ([1]; 40 mg/kg i.p. daily, 5 weeks): 0.618%
CBC MO ([1]; 40 mg/kg i.p. daily, 5 weeks): 9.158%
CBC WBC ([1]; 40 mg/kg i.p. daily, 5 weeks): 5.876 K/uL
Liver Alb ([1]; 40 mg/kg i.p. daily, 5 weeks): 2.98 g/dL
CBC RBC ([1]; 40 mg/kg i.p. daily, 5 weeks): 9.714 M/uL
CBC NE ([1]; 40 mg/kg i.p. daily, 5 weeks): 8.926%
CBC Hb ([1]; 40 mg/kg i.p. daily, 5 weeks): 13.38 g/dL
Renal BUN ([1]; 40 mg/kg i.p. daily, 5 weeks): 26.4 mg/dL
Liver ALT ([1]; 40 mg/kg i.p. daily, 5 weeks): 46.2 U/L
CBC LY ([1]; 40 mg/kg i.p. daily, 5 weeks): 81.206%
CBC PLT ([1]; 40 mg/kg i.p. daily, 5 weeks): 548.8 K/uL
Renal Cre ([1]; 40 mg/kg i.p. daily, 5 weeks): <0.15 mg/dL
CBC BA ([1]; 60 mg/kg i.p. daily, 3 weeks): 0.078%
CBC EO ([1]; 60 mg/kg i.p. daily, 3 weeks): 0.35%
CBC MO ([1]; 60 mg/kg i.p. daily, 3 weeks): 9.418%
CBC WBC ([1]; 60 mg/kg i.p. daily, 3 weeks): 6.712 K/uL
Liver Alb ([1]; 60 mg/kg i.p. daily, 3 weeks): 3.5 g/dL
CBC RBC ([1]; 60 mg/kg i.p. daily, 3 weeks): 9.858 M/uL
CBC NE ([1]; 60 mg/kg i.p. daily, 3 weeks): 12.606%
CBC Hb ([1]; 60 mg/kg i.p. daily, 3 weeks): 14.76 g/dL
Renal BUN ([1]; 60 mg/kg i.p. daily, 3 weeks): 25.4 mg/dL
Liver ALT ([1]; 60 mg/kg i.p. daily, 3 weeks): 50.5 U/L
CBC LY ([1]; 60 mg/kg i.p. daily, 3 weeks): 77.548%
CBC PLT ([1]; 60 mg/kg i.p. daily, 3 weeks): 700.8 K/uL
Renal Cre ([1]; 60 mg/kg i.p. daily, 3 weeks): <0.15 mg/dL
CBC BA ([1]; 60 mg/kg i.p. daily, 5 weeks): 0.016%
CBC EO ([1]; 60 mg/kg i.p. daily, 5 weeks): 0.304%
CBC MO ([1]; 60 mg/kg i.p. daily, 5 weeks): 10.276%
CBC WBC ([1]; 60 mg/kg i.p. daily, 5 weeks): 5.664 K/uL
Liver Alb ([1]; 60 mg/kg i.p. daily, 5 weeks): 2.72 g/dL
CBC RBC ([1]; 60 mg/kg i.p. daily, 5 weeks): 8.958 M/uL
CBC NE ([1]; 60 mg/kg i.p. daily, 5 weeks): 7.656%
CBC Hb ([1]; 60 mg/kg i.p. daily, 5 weeks): 12.74 g/dL
Renal BUN ([1]; 60 mg/kg i.p. daily, 5 weeks): 22.8 mg/dL
Liver ALT ([1]; 60 mg/kg i.p. daily, 5 weeks): 49.2 U/L
CBC LY ([1]; 60 mg/kg i.p. daily, 5 weeks): 81.742%
CBC PLT ([1]; 60 mg/kg i.p. daily, 5 weeks): 618 K/uL
Renal Cre ([1]; 60 mg/kg i.p. daily, 5 weeks): <0.15 mg/dL
Pin1 and its substrate oncoproteins (IB) (Pin1): ablate Pin1
apoptosis of WT organoids (human PDAC organoids): promoted the apoptosis of WT organoids
